Reference: PMC3472068, “Roles of the different components of magnesium chelatase in abscisic acid signal transduction” (Plant Molecular Biology, 2012)

Target: T1, CHLH (CHLH/ABAR) (Arabidopsis thaliana, UniProt Q9FNB0)
T1 construct: ORF in pFastBac HFT-B, Flag-tagged fusion, expressed in Sf9 insect cells; about 150 kDa; full length 1381 residues; amine-coupled on CM5 chip
T1 sequence (Q9FNB0 1-1381): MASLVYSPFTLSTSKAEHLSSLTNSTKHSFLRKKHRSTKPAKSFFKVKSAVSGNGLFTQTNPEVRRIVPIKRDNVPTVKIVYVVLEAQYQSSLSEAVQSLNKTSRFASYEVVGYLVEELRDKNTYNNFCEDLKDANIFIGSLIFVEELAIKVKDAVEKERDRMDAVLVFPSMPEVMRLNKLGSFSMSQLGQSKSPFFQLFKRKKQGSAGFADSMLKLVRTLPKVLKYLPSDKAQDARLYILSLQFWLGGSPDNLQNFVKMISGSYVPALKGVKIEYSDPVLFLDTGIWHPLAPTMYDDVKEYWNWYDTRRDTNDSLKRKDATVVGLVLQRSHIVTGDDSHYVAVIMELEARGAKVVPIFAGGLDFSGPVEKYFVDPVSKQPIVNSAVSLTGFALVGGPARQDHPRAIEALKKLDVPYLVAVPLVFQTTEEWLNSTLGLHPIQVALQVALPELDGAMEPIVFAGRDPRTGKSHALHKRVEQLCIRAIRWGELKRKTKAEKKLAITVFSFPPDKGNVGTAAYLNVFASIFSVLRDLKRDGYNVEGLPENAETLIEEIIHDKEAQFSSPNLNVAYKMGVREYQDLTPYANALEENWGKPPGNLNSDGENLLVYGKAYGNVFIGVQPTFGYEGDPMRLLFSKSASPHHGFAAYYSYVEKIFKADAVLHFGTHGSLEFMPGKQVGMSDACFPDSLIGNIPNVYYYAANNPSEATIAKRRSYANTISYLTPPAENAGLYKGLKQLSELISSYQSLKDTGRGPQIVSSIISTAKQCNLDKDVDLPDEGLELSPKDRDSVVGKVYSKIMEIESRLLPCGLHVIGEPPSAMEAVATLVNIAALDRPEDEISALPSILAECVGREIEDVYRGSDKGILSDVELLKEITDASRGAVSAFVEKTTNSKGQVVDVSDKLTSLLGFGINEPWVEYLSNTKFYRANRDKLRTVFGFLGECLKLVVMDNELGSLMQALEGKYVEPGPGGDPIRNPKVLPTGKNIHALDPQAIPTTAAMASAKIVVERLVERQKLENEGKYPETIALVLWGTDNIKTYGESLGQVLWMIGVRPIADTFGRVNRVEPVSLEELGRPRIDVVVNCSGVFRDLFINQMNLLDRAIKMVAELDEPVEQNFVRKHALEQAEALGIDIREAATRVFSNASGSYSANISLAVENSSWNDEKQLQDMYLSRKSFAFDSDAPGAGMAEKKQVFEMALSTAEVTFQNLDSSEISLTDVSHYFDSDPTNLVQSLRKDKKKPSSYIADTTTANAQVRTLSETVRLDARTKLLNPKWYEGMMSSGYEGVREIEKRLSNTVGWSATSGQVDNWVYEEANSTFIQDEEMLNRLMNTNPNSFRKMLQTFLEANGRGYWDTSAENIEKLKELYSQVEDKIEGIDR
Experiment: SPR (Biacore T200, CM5 chip, protein immobilized by amine coupling), steady-state fit
Format: binding
Conditions: HBS-EP running buffer with EDTA, pH 7.4, 25 °C, 6-100 μM analyte; unreliable (authors attribute the low affinity to technical limits of SPR)

Q: Which Kd does the source give for `CC1=CC(=O)CC(C)(C)C1(O)/C=C/C(C)=C\C(=O)O` (stereo in doubt) [(+)-ABA] here?
A: Its Kd is 20 µM.
